Source: PMC8452690, “Structural basis for small molecule targeting of Doublecortin Like Kinase 1 with DCLK1-IN-1” (Communications Biology, 2021)
Values joined by “and” are separate entries in the source; they are usually repeats but may differ in a detail not shown here. Equal values may be shown once. Read-outs that look alike come from different tables or passages of the source. Marks after values point to notes of the source that are not given here.

Columns and labels:
DCLK1-FL1Δ D511N [1] = target: T1, DCLK1-FL1Δ D511N (Homo sapiens, UniProt O15075, D511N); assay: SPR binding to immobilised DCLK1-FL1Δ D511N (non-phosphorylated); settings: for Kd: 18 °C, DCLK1 FL1Δ D511N immobilised, mean ± SEM
T1 construct: DCLK1-FL1Δ (residues 50-686); 8XHis tag with TEV protease cleavage site (N); made in house; host or cells: Escherichia coli C41(DE3)
T1 sequence (O15075 50-686 D511N): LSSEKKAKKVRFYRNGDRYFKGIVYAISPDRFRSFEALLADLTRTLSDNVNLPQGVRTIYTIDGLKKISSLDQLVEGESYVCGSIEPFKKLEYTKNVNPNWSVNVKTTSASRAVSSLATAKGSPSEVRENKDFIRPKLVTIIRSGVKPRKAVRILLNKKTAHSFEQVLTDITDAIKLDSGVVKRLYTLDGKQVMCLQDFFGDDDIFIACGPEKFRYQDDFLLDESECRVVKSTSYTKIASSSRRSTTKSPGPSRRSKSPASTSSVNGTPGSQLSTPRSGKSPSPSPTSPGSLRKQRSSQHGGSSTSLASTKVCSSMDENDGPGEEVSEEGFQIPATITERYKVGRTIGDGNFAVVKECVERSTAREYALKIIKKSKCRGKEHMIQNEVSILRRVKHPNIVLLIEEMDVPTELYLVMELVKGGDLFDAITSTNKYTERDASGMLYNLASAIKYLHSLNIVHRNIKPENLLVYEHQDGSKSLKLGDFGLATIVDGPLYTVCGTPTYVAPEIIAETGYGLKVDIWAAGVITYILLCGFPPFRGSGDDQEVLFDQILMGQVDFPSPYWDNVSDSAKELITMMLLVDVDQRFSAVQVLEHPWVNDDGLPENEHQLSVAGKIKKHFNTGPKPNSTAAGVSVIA
Protocol: (§1) SPR studies were carried out on a Biacore 2000 instrument (Cytivia). Proteins were immobilised at 25 °C using standard amine coupling to a CM5 chip (Cytivia) in immobilisation buffer consisting of 10 mM HEPES pH 7.4, 150 mM NaCl, 1 mM TCEP, 0.005% Tween P20, 1% (v/v) DMSO. To the active flow, cells were coupled either DCLK1-FL1Δ D511N or WT to a final density of approximately 7000 RU, followed by surface deactivation with 1 M ethanolamine. For each protein, coupling was performed at a concentration of 2 µM protein in 10 mM sodium acetate buffer pH 4.0, 1% (v/v) DMSO final, in the presence 10 µM of the moderate affinity compound FMF-03-149-01 (IC50 ~400 nM)[28] to help to stabilise the kinase domain during immobilsiation at low pH. A blank immobilisation was performed on the reference flow cell.
(§2) Binding experiments were performed at 18 °C in running buffer consisting of 20 mM HEPES, pH 7.4, 150 mM NaCl, 1 mM tris(2-carboxyethyl)phosphine (TCEP), 0.005% (v/v) Tween-P20, and 2% (v/v) DMSO. Compounds (10 mM stocks in 100% DMSO) were diluted in DMSO to 500 µM (DCLK1-NEG) or 25 µM (all other compounds) then in running buffer (without DMSO) to achieve the starting concentration with a final DMSO concentration of 2% (v/v). Samples were then serially titrated in running buffer containing 2% (v/v) DMSO to prepare each final concentration series (seven-point, three-fold serial dilution, 10 µM−13.7 nM for DCLK1-NEG, or 500−0.68 nM for all other compounds). Solutions were injected in multi-cycle format (in duplicate) without regeneration (contact time 80 s, flow rate 75 μL/min, dissociation time 600 s), with an extra wash (50% DMSO) after each injection.
(§3) Steady-state/kinetic binding data were fitted using the S200 BIAevaluation software (GE Healthcare). Sensorgrams from reference surfaces and blank injections were subtracted from the raw data (double-referencing), followed by solvent correction. Kinetic rate constants (kon and koff values) were obtained by fitting to 1:1 Langmuir binding model. Reported binding data represent mean ± SEM for three or four independent experiments. The dissociative half-life life (t1/2) for each inhibitor complex with DCLK1 was calculated from the fitted dissociation rate constant (koff), according to the equation 1 (t1/2 = ln(2)/koff.)

DCLK1-FL1Δ WT [2] = target: T2, DCLK1-FL1Δ WT (Homo sapiens, UniProt O15075); assay: SPR binding to immobilised DCLK1-FL1Δ WT (phosphorylated); settings: for Kd: SPR, 18 °C, DCLK1 FL1Δ WT immobilised, mean ± SEM
T2 sequence (O15075 50-686 isoform O15075-2): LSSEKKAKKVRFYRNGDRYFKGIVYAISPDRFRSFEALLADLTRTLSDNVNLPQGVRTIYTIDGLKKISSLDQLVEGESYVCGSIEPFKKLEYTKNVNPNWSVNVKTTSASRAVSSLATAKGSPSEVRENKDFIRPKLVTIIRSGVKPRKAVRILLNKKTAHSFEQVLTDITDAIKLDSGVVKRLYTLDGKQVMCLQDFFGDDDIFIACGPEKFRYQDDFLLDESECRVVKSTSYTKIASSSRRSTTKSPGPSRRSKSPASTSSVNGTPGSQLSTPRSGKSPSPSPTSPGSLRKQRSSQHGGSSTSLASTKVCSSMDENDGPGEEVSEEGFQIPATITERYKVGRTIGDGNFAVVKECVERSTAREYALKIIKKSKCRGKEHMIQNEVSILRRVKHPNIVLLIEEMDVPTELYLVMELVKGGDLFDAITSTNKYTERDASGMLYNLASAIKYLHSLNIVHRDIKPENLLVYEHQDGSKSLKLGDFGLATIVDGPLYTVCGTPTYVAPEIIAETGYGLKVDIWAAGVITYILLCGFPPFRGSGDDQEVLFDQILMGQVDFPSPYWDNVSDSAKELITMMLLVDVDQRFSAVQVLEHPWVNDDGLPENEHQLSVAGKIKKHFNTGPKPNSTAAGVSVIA
Protocol: as §1, §2, §3

DCLK1-FL1Δ WT [3] = target: T2, DCLK1-FL1Δ WT; assay: Thermal shift stability assay, DCLK1-FL1Δ WT; assay type: binding; settings: phosphorylated WT, 2.5-40 μM
Protocol: (§4) DCLK1 proteins were diluted in 150 mM NaCl, 20 mM Tris pH 8.0, 1 mM DTT to […] final concentration and assayed with the appropriate concentration of inhibitor in a total reaction volume of 25 μL. SYPRO Orange (Molecular Probes) was used as a fluorescence probe and detected at 530 nm. The data shown are representative of two independent experiments.

DCLK1-FL1Δ D511N [4] = target: T1, DCLK1-FL1Δ D511N; assay: Thermal shift stability assay, DCLK1-FL1Δ D511N; assay type: binding; settings: D511N mutant, 2.5-40 μM
Protocol: as §4

[5] = target: T3, DCLK1-FL1Δ WT tubulin polymerisation activity (Homo sapiens, UniProt O15075); assay: Tubulin polymerisation and pelleting assay with DCLK1-FL1Δ WT; assay type: biochemical; settings: 20 and 40 μM (Supplementary Fig. 10c)
T3 construct: DCLK1-FL1Δ (residues 50-686); 8XHis tag with TEV protease cleavage site (N); made in house; host or cells: Escherichia coli C41(DE3)
T3 sequence (O15075 50-686 isoform O15075-2): T2 sequence (O15075 50-686 isoform O15075-2)
Protocol: Tubulin polymerisation assays were performed in buffer containing 80 mM PIPES at pH 6.9, 2.0 mM MgCl2, 0.5 mM EGTA, 2.5 mM β,γ-Methyleneguanosine 5’-triphosphate, and 10 μM tubulin and 5 μM DCLK1 for 1 h at 37 °C. For tubulin polymerisation in the presence of inhibitors, various concentrations of the inhibitors were first incubated with DCLK1 and allowed to stand on ice for 5 min before adding this mix to the tubulin polymerisation reaction. Following the tubulin polymerisation, the reaction mix was pelleted at 20,000 g for 20 min and the supernatant and the pellet fractions were run on a 12% SDS gel. The data shown are representative of two independent experiments.

DCLK1-KD = target: DCLK1-KD; design: method as in PMID 32251410; settings: read-out: KD by ITC; cited from earlier work
[6] = read-out: koff, kinetic fitting

COc1cc(N2CCN(C)CC2)ccc1Nc1ncc2c(n1)N(C)c1ccccc1C(=O)N2CC(F)(F)F [DCLK1-IN-1]
kon, kinetic fitting (DCLK1-FL1Δ D511N [1]): 5.1 ± 0.3 1/Ms (x 10^5) | off-rate faster relative to FMF-03-055-01 or XMD8-85 (DCLK1-FL1Δ D511N [1]; SPR): ~ 2 fold | on-rate slower relative to FMF-03-055-01 or XMD8-85 (DCLK1-FL1Δ D511N [1]; SPR): ~ 2 fold | affinity weaker than FMF-03-055-01 or XMD8-85 (DCLK1-FL1Δ D511N [1]; SPR KD, DCLK1-FL1Δ D511N): 4−5 fold | Kd (DCLK1-FL1Δ D511N [1]; SPR, read-out: KD, kinetic fitting (1:1 binding model)): 53 nM | Kd (DCLK1-FL1Δ D511N [1]; SPR, read-out: KD, steady state fitting): 70 ± 4 nM | reduction in DCLK1 affinity compared to FMF-03-055-1 (DCLK1-FL1Δ D511N [1]; discussion statement): five-fold reduction | koff (DCLK1-FL1Δ D511N [1]; [6]): 0.027 ± 0.001 s⁻¹ | kon (DCLK1-FL1Δ D511N [1]; read-out: kon (Fig. 5c)): 510000 ± 30000 M⁻¹ s⁻¹ | kon, kinetic fitting (DCLK1-FL1Δ WT [2]): 6 ± 2 1/Ms (x 10^5) | Kd (DCLK1-FL1Δ WT [2]; read-out: KD, kinetic fitting (1:1 binding model)): 83 ± 22 nM | Kd (DCLK1-FL1Δ WT [2]; read-out: KD, steady state fitting): 145 ± 35 nM | koff (DCLK1-FL1Δ WT [2]; [6]): 0.04 ± 0.01 s⁻¹ | melting temperature change versus control compound DCLK1-NEG (DCLK1-FL1Δ WT [3]): increased | melting temperature change versus control compound DCLK1-NEG (DCLK1-FL1Δ D511N [4]): increased | restoration of DCLK1-FL1Δ WT tubulin polymerisation activity [5]: did not restore | Kd (DCLK1-KD): 55 nM and 109 nM
